#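 Five compound concentrations were applied to cells in 96-well plates for 48 hours; endpoints were derived by simple linear interpolation of the resulting dose-response curve. TGI: concentration producing complete growth inhibition.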
# Test system: SW-620 colon
# Assay: inhibition of tumour cell growth, NCI panel, 48 h
row,Compound,TGI [µM]
1,CN(Cc1cnc2nc(N)nc(N)c2n1)c1ccc(C(=O)NCCS(=O)(=O)O)cc1,> 100
2,COc1ccccc1CCN1CCN(CCCc2ccccc2)CC1,> 100
3,O=C1NC(N/N=C/c2ccccc2)=N/C1=C\c1ccco1,> 100
4,O=C(C1OC1c1ccc(Cl)cc1)C12CC3CC(CC(C3)C1)C2 (stereo not given),44.6
5,NC1c2c(Br)sc(N3CCCC3)c2C(=O)C1O (stereo not given),> 50
6,CC(C)=C1C(=O)C[C@]2(C)C[C@H]3O[C@]3(C)CC[C@@H]3O[C@@]3(C)CC[C@@H]12,> 50
7,COc1cccc2c1C(=O)C1=C(C2=O)C(O)CC(C)(C)O1 (stereo not given),> 100
8,Cc1ccc(Cc2n[nH]c(=O)[nH]2)cc1,> 100
9,O=c1ccn([C@@H]2C[C@H]2CO)c(=O)[nH]1,> 100
10,COc1ccc(N2CN3OC(=O)N(c4ccc(OC)cc4)[C@@]3(c3ccccc3)C2)cc1,> 100

# Test system: HCC-2998 colon
# Assay: inhibition of tumour cell growth, NCI panel, 48 h
row,Compound,TGI [µM]
1,CN(Cc1cnc2nc(N)nc(N)c2n1)c1ccc(C(=O)NCCS(=O)(=O)O)cc1,> 100
2,COc1ccccc1CCN1CCN(CCCc2ccccc2)CC1,> 100
3,O=C1NC(N/N=C/c2ccccc2)=N/C1=C\c1ccco1,> 100
4,O=C(C1OC1c1ccc(Cl)cc1)C12CC3CC(CC(C3)C1)C2 (stereo not given),35.4
5,NC1c2c(Br)sc(N3CCCC3)c2C(=O)C1O (stereo not given),> 50
6,CC(C)=C1C(=O)C[C@]2(C)C[C@H]3O[C@]3(C)CC[C@@H]3O[C@@]3(C)CC[C@@H]12,> 50
7,COc1cccc2c1C(=O)C1=C(C2=O)C(O)CC(C)(C)O1 (stereo not given),> 100
8,Cc1ccc(Cc2n[nH]c(=O)[nH]2)cc1,> 100
9,O=c1ccn([C@@H]2C[C@H]2CO)c(=O)[nH]1,> 100
10,COc1ccc(N2CN3OC(=O)N(c4ccc(OC)cc4)[C@@]3(c3ccccc3)C2)cc1,> 100

# Test system: ACHN renal
# Assay: inhibition of tumour cell growth, NCI panel, 48 h
row,Compound,TGI [µM]
1,CN(Cc1cnc2nc(N)nc(N)c2n1)c1ccc(C(=O)NCCS(=O)(=O)O)cc1,> 100
2,COc1ccccc1CCN1CCN(CCCc2ccccc2)CC1,> 100
3,O=C1NC(N/N=C/c2ccccc2)=N/C1=C\c1ccco1,55.4
4,O=C(C1OC1c1ccc(Cl)cc1)C12CC3CC(CC(C3)C1)C2 (stereo not given),90.1
5,NC1c2c(Br)sc(N3CCCC3)c2C(=O)C1O (stereo not given),> 50
6,CC(C)=C1C(=O)C[C@]2(C)C[C@H]3O[C@]3(C)CC[C@@H]3O[C@@]3(C)CC[C@@H]12,> 50
7,COc1cccc2c1C(=O)C1=C(C2=O)C(O)CC(C)(C)O1 (stereo not given),> 100
8,Cc1ccc(Cc2n[nH]c(=O)[nH]2)cc1,> 100
9,O=c1ccn([C@@H]2C[C@H]2CO)c(=O)[nH]1,> 100
10,COc1ccc(N2CN3OC(=O)N(c4ccc(OC)cc4)[C@@]3(c3ccccc3)C2)cc1,> 100

# Test system: OVCAR-5 ovarian
# Assay: inhibition of tumour cell growth, NCI panel, 48 h
row,Compound,TGI [µM]
1,CN(Cc1cnc2nc(N)nc(N)c2n1)c1ccc(C(=O)NCCS(=O)(=O)O)cc1,> 100
2,COc1ccccc1CCN1CCN(CCCc2ccccc2)CC1,> 100
3,O=C1NC(N/N=C/c2ccccc2)=N/C1=C\c1ccco1,> 100
4,O=C(C1OC1c1ccc(Cl)cc1)C12CC3CC(CC(C3)C1)C2 (stereo not given),50.8
5,NC1c2c(Br)sc(N3CCCC3)c2C(=O)C1O (stereo not given),> 50
6,CC(C)=C1C(=O)C[C@]2(C)C[C@H]3O[C@]3(C)CC[C@@H]3O[C@@]3(C)CC[C@@H]12,> 50
7,COc1cccc2c1C(=O)C1=C(C2=O)C(O)CC(C)(C)O1 (stereo not given),> 100
8,Cc1ccc(Cc2n[nH]c(=O)[nH]2)cc1,> 100
9,O=c1ccn([C@@H]2C[C@H]2CO)c(=O)[nH]1,> 100
10,COc1ccc(N2CN3OC(=O)N(c4ccc(OC)cc4)[C@@]3(c3ccccc3)C2)cc1,> 100

# Test system: CAKI-1 renal
# Assay: inhibition of tumour cell growth, NCI panel, 48 h
row,Compound,TGI [µM]
1,CN(Cc1cnc2nc(N)nc(N)c2n1)c1ccc(C(=O)NCCS(=O)(=O)O)cc1,> 100
2,COc1ccccc1CCN1CCN(CCCc2ccccc2)CC1,> 100
3,O=C1NC(N/N=C/c2ccccc2)=N/C1=C\c1ccco1,> 100
4,O=C(C1OC1c1ccc(Cl)cc1)C12CC3CC(CC(C3)C1)C2 (stereo not given),67.5
5,NC1c2c(Br)sc(N3CCCC3)c2C(=O)C1O (stereo not given),> 50
6,CC(C)=C1C(=O)C[C@]2(C)C[C@H]3O[C@]3(C)CC[C@@H]3O[C@@]3(C)CC[C@@H]12,> 50
7,COc1cccc2c1C(=O)C1=C(C2=O)C(O)CC(C)(C)O1 (stereo not given),> 100
8,Cc1ccc(Cc2n[nH]c(=O)[nH]2)cc1,> 100
9,O=c1ccn([C@@H]2C[C@H]2CO)c(=O)[nH]1,> 100
10,COc1ccc(N2CN3OC(=O)N(c4ccc(OC)cc4)[C@@]3(c3ccccc3)C2)cc1,> 100

# Test system: MDA-MB-231 breast
# Assay: inhibition of tumour cell growth, NCI panel, 48 h
row,Compound,TGI [µM]
1,CN(Cc1cnc2nc(N)nc(N)c2n1)c1ccc(C(=O)NCCS(=O)(=O)O)cc1,> 100
2,COc1ccccc1CCN1CCN(CCCc2ccccc2)CC1,> 100
3,O=C1NC(N/N=C/c2ccccc2)=N/C1=C\c1ccco1,> 100
4,O=C(C1OC1c1ccc(Cl)cc1)C12CC3CC(CC(C3)C1)C2 (stereo not given),54.8
5,NC1c2c(Br)sc(N3CCCC3)c2C(=O)C1O (stereo not given),> 50
6,CC(C)=C1C(=O)C[C@]2(C)C[C@H]3O[C@]3(C)CC[C@@H]3O[C@@]3(C)CC[C@@H]12,> 50
7,COc1cccc2c1C(=O)C1=C(C2=O)C(O)CC(C)(C)O1 (stereo not given),87.7
8,Cc1ccc(Cc2n[nH]c(=O)[nH]2)cc1,> 100
9,O=c1ccn([C@@H]2C[C@H]2CO)c(=O)[nH]1,> 100
10,COc1ccc(N2CN3OC(=O)N(c4ccc(OC)cc4)[C@@]3(c3ccccc3)C2)cc1,99.6

# Test system: T-47D breast
# Assay: inhibition of tumour cell growth, NCI panel, 48 h
row,Compound,TGI [µM]
1,CN(Cc1cnc2nc(N)nc(N)c2n1)c1ccc(C(=O)NCCS(=O)(=O)O)cc1,> 100
2,COc1ccccc1CCN1CCN(CCCc2ccccc2)CC1,> 100
3,O=C1NC(N/N=C/c2ccccc2)=N/C1=C\c1ccco1,> 100
4,O=C(C1OC1c1ccc(Cl)cc1)C12CC3CC(CC(C3)C1)C2 (stereo not given),> 100
5,NC1c2c(Br)sc(N3CCCC3)c2C(=O)C1O (stereo not given),> 50
6,CC(C)=C1C(=O)C[C@]2(C)C[C@H]3O[C@]3(C)CC[C@@H]3O[C@@]3(C)CC[C@@H]12,> 50
7,COc1cccc2c1C(=O)C1=C(C2=O)C(O)CC(C)(C)O1 (stereo not given),> 100
8,Cc1ccc(Cc2n[nH]c(=O)[nH]2)cc1,> 100
9,O=c1ccn([C@@H]2C[C@H]2CO)c(=O)[nH]1,> 100
10,COc1ccc(N2CN3OC(=O)N(c4ccc(OC)cc4)[C@@]3(c3ccccc3)C2)cc1,69.2

# Test system: A549 NSCLC
# Assay: inhibition of tumour cell growth, NCI panel, 48 h
row,Compound,TGI [µM]
1,CN(Cc1cnc2nc(N)nc(N)c2n1)c1ccc(C(=O)NCCS(=O)(=O)O)cc1,> 100
2,COc1ccccc1CCN1CCN(CCCc2ccccc2)CC1,> 100
3,O=C1NC(N/N=C/c2ccccc2)=N/C1=C\c1ccco1,81.3
4,O=C(C1OC1c1ccc(Cl)cc1)C12CC3CC(CC(C3)C1)C2 (stereo not given),48.5
5,NC1c2c(Br)sc(N3CCCC3)c2C(=O)C1O (stereo not given),> 50
6,CC(C)=C1C(=O)C[C@]2(C)C[C@H]3O[C@]3(C)CC[C@@H]3O[C@@]3(C)CC[C@@H]12,> 50
7,COc1cccc2c1C(=O)C1=C(C2=O)C(O)CC(C)(C)O1 (stereo not given),> 100
8,Cc1ccc(Cc2n[nH]c(=O)[nH]2)cc1,> 100
9,O=c1ccn([C@@H]2C[C@H]2CO)c(=O)[nH]1,> 100
10,COc1ccc(N2CN3OC(=O)N(c4ccc(OC)cc4)[C@@]3(c3ccccc3)C2)cc1,> 100

# Test system: IGROV1 ovarian
# Assay: inhibition of tumour cell growth, NCI panel, 48 h
row,Compound,TGI [µM]
1,CN(Cc1cnc2nc(N)nc(N)c2n1)c1ccc(C(=O)NCCS(=O)(=O)O)cc1,> 100
2,COc1ccccc1CCN1CCN(CCCc2ccccc2)CC1,> 100
3,O=C1NC(N/N=C/c2ccccc2)=N/C1=C\c1ccco1,57.4
4,O=C(C1OC1c1ccc(Cl)cc1)C12CC3CC(CC(C3)C1)C2 (stereo not given),67.4
5,NC1c2c(Br)sc(N3CCCC3)c2C(=O)C1O (stereo not given),> 50
6,CC(C)=C1C(=O)C[C@]2(C)C[C@H]3O[C@]3(C)CC[C@@H]3O[C@@]3(C)CC[C@@H]12,> 50
7,COc1cccc2c1C(=O)C1=C(C2=O)C(O)CC(C)(C)O1 (stereo not given),> 100
8,Cc1ccc(Cc2n[nH]c(=O)[nH]2)cc1,> 100
9,O=c1ccn([C@@H]2C[C@H]2CO)c(=O)[nH]1,> 100
10,COc1ccc(N2CN3OC(=O)N(c4ccc(OC)cc4)[C@@]3(c3ccccc3)C2)cc1,> 100

# Test system: 786-0 renal
# Assay: inhibition of tumour cell growth, NCI panel, 48 h
row,Compound,TGI [µM]
1,CN(Cc1cnc2nc(N)nc(N)c2n1)c1ccc(C(=O)NCCS(=O)(=O)O)cc1,> 100
2,COc1ccccc1CCN1CCN(CCCc2ccccc2)CC1,> 100
3,O=C1NC(N/N=C/c2ccccc2)=N/C1=C\c1ccco1,55.6
4,O=C(C1OC1c1ccc(Cl)cc1)C12CC3CC(CC(C3)C1)C2 (stereo not given),30.7
5,NC1c2c(Br)sc(N3CCCC3)c2C(=O)C1O (stereo not given),> 50

# — PubChem BioAssay (NCI)
